Patent US12234212B2, “Peptide conjugates of microtubule-targeting agents as therapeutics” (Cybrexa 3, Inc., priority 2019, dated 2025)
pIC50, pKd: −log10 of the molar value.

What was measured:
FaDu = assay: Growth delay assay, FaDu; assay type: cell-based; conditions: FaDu cells, 96 hours after addition of drug, cell count (Hoechst)
Protocol: (§1) Cells were plated in 96 well black walled-clear bottom plates (Griener), DLD-1 WT cells at 2500 cells per well, FaDu, and HeLa cells at 5000 cells per well, and HCT116 at 3000 cells per well, in growth media containing […]. Cells were allowed to adhere at room temperature for 60 minutes before returning to a 37 C, 5% CO2 incubator. After 24 hours, media was removed and replaced with fresh growth media containing various drug concentrations. Each drug concentration was added in triplicate. Non-drug treated controls contained growth media only. Cells were returned to the incubator. Ninety-six hours after addition of drug, cells were fixed with […] for 20 minutes and stained with Hoechst at 1 μg/mL. The plates were imaged on a Cytation 5 auto imager (BioTek) and cells were counted using CellProfiler (http://cellprofiler.org). The percent cell growth delay was calculated and data plotted using GraphPad Prism

DLD-1 WT cells = assay: Growth delay assay, DLD-1; assay type: cell-based; conditions: DLD-1 cells, 96 hours after addition of drug, cell count (Hoechst)
Protocol: as §1

HeLa cells = assay: Growth delay assay, HeLa; assay type: cell-based; conditions: 96 hours after addition of drug, cell count (Hoechst)
Protocol: as §1

HCT116 = assay: Growth delay assay, HCT116; assay type: cell-based, human; conditions: HCT116 cells, 96 hours after addition of drug, cell count (Hoechst)
Protocol: as §1

[1] = tested on: nude mice bearing HCT116 colorectal flank tumors; assay: Mouse colorectal cancer model, Kaplan-Meier survival; assay type: in vivo; conditions: IP, QDX4; DM4 0.42 μmole/kg; Compound 5 0.21-0.42 μmole/kg; post-dosing period
Protocol: Six-week-old female athymic nude Foxn^nu mice were obtained from Taconic Labs (Cat #NCRNU-F) and were housed 5 per cage on Alpha-Dri bedding in a disposable caging system. Human HCT116 cells derived from colorectal carcinoma were diluted 1:1 in Phenol Red-free Matrigel and subcutaneously implanted into the left flank of each mouse at a density of 2.5×10^6 cells in 100 μL. When xenografts reached a mean volume of 100-200 mm^3, mice were randomized into groups and treated as detailed in the table below. Mice were administered intraperitoneal (IP) doses of vehicle or 0.21, 0.29, 0.35, 0.42 μmole/kg Compound 5 (equivalent to 1.1, 1.4, 1.7, or 2 mg/kg Compound 5) or 0.42 μmole/kg unconjugated DM4 (equivalent to 0.33 mg/kg unconjugated DM4). Doses were prepared by diluting 0.1 mg/μL DMSO stocks in 5% mannitol in citrate buffer and were administered QDX4 with a two day interval between the second and third doses, at a volume of 12 mL/kg (300 μL per 25 g mouse). Xenograft tumors were measured by calipers and volume was calculated using the equation for ellipsoid volume: Volume=π/6×(length)×(width)^2. Body weight of animals was measured at the same time as tumor volume assessment. Animals were removed from the study due to death, tumor size exceeding 2000 mm^3 or loss of >20% body weight. Kaplan-Meier analysis was used to evaluate survival rate based on death or removal from study.

[2] = tested on: T1, Biotin-labeled human tubulin derived from HeLa cells (β-tubulin); assay: Kinetic analysis of conjugate binding (Biacore surface plasmon resonance); conditions: Biacore S200, 25° C., immobilized tubulin; read-out: KD (affinity constant, steady state) for β-tubulin
T1 construct: fused on or other part: Biotin label, used for capture on a streptavidin sensor chip
Protocol: Binding experiments were performed using a Biacore S200 instrument. A Series S sensor chip with pre-immobilized streptavidin was conditioned with 1 M NaCl in 50 mM NaOH. Biotin-labeled human tubulin derived from HeLa cells was immobilized to the sensor chip at a concentration of 125 μg/mL in HBS-P+ buffer at a flow rate of 10 μl/min. A final 3000 RU (response units) of protein was directly immobilized to the chip. After tubulin immobilization, the sensor chip was washed with 50% isopropanol, 50 mM NaOH and 1 M NaCl and subsequently allowed to equilibrate in assay buffer for 4 hours. A streptavidin-biotin capture blank (reference FC) was used to monitor non-specific binding.
To collect kinetic binding data, Compound 5 diluted in assay buffer was injected over the flow cells at concentrations ranging from 100 μM to 0.048 μM and 50 μM to 0.024 μM, at a flow rate of 60 μL/minute and a temperature of 25° C. The complex was allowed to dissociate for 60 seconds. Binding of compound to tubulin was monitored in real time to obtain on (Ka) and off (Koff) rates. The affinity constant (KD) was calculated by steady state kinetics.

SMILES | pIC50 (FaDu) | pIC50 (DLD-1 WT cells) | pIC50 (HeLa cells) | pIC50 (HCT116) | survival / systemic toxicity (Kaplan-Meier) [1] | pIC50 (FaDu; Homo sapiens) | pIC50 (DLD-1 WT cells; Homo sapiens) | pIC50 (HeLa cells; Homo sapiens) | pIC50 (HCT116; Homo sapiens, HCT-116) | pKd [2]
COc1cc2cc(c1Cl)N(C)C(=O)C[C@H](OC(=O)[C@H](C)N(C)C(=O)CCSSC[C@H](NC(=O)[C@H](Cc1c[nH]c3ccccc13)NC(=O)[C@H](CC(C)C)NC(=O)[C@H](CC(C)C)NC(=O)[C@H](CC(=O)O)NC(=O)[C@H](CC(C)C)NC(=O)[C@H](CC(C)C)NC(=O)[C@H](CC(C)C)NC(=O)[C@@H](NC(=O)[C@H](CC(=O)O)NC(=O)[C@@H](NC(=O)[C@@H]1CCCN1C(=O)[C@H](Cc1ccccc1)NC(=O)[C@H](CC(C)C)NC(=O)[C@H](CC(C)C)NC(=O)[C@H](CC(=O)O)NC(=O)[C@H](CC(C)C)NC(=O)[C@H](Cc1ccc(O)cc1)NC(=O)[C@H](C)NC(=O)[C@H](CCCNC(=N)N)NC(=O)[C@H](Cc1c[nH]c3ccccc13)NC(=O)[C@@H]1CCCN1C(=O)[C@H](CC(N)=O)NC(=O)[C@H](CCC(N)=O)NC(=O)[C@H](CC(=O)O)NC(=O)[C@H](CC(=O)O)NC(=O)[C@H](C)N)[C@@H](C)O)[C@@H](C)O)C(=O)NCC(=O)O)[C@]1(C)O[C@H]1[C@H](C)[C@@H]1C[C@@](O)(NC(=O)O1)[C@H](OC)/C=C/C=C(\C)C2 [Compound 1] | 7.98 | 7.22 | 8.13 | 7.66 |  |  |  |  |  | 
COc1cc2cc(c1Cl)N(C)C(=O)C[C@H](OC(=O)[C@H](C)N(C)C(=O)CCC(C)(C)SSC[C@H](NC(=O)[C@H](Cc1c[nH]c3ccccc13)NC(=O)[C@H](CC(C)C)NC(=O)[C@H](CC(C)C)NC(=O)[C@H](CC(=O)O)NC(=O)[C@H](CC(C)C)NC(=O)[C@H](CC(C)C)NC(=O)[C@H](CC(C)C)NC(=O)[C@@H](NC(=O)[C@H](CC(=O)O)NC(=O)[C@@H](NC(=O)[C@@H]1CCCN1C(=O)[C@H](Cc1ccccc1)NC(=O)[C@H](CC(C)C)NC(=O)[C@H](CC(C)C)NC(=O)[C@H](CC(=O)O)NC(=O)[C@H](CC(C)C)NC(=O)[C@H](Cc1ccc(O)cc1)NC(=O)[C@H](C)NC(=O)[C@H](CCCNC(=N)N)NC(=O)[C@H](Cc1c[nH]c3ccccc13)NC(=O)[C@@H]1CCCN1C(=O)[C@H](CC(N)=O)NC(=O)[C@H](CCC(N)=O)NC(=O)[C@H](CC(=O)O)NC(=O)[C@H](CC(=O)O)NC(=O)[C@H](C)N)[C@@H](C)O)[C@@H](C)O)C(=O)NCC(=O)O)[C@]1(C)O[C@H]1[C@H](C)[C@@H]1C[C@@](O)(NC(=O)O1)[C@H](OC)/C=C/C=C(\C)C2 [Compound 5] |  |  |  |  | safely delivers amounts of DM4 in vivo |  |  |  |  | 
COc1cc2cc(c1Cl)N(C)C(=O)C[C@H](OC(=O)[C@H](C)N(C)C(=O)CCS)C1(C)O[C@H]1[C@H](C)[C@@H]1C[C@@](O)(NC(=O)O1)[C@H](OC)/C=C/C=C(\C)C2 (stereo partly drawn) [R^2SH-1, [(1S,2R,3S,6S,16E,18E,20R,21S)-11-chloro-21-hydroxy-12,20-dimethoxy-2,5,9,16-tetramethyl-8,23-dioxo-4,24-dioxa-9,22-diazatetracyclo[19.3.1.110,14.03,5]hexacosa-10(26),11,13,16,18-pentaen-6-yl] (2S)-2-[methyl(3-sulfanylpropanoyl)amino]propanoate] |  |  |  |  |  | 8.55 | 8.01 | 8.59 | 8.37 | 
COc1cc2cc(c1Cl)N(C)C(=O)C[C@H](OC(=O)[C@H](C)N(C)C(=O)CCC(C)(C)S)C1(C)O[C@H]1[C@H](C)[C@@H]1C[C@@](O)(NC(=O)O1)[C@H](OC)/C=C/C=C(\C)C2 (stereo partly drawn) [R^2SH-2, [(1S,2R,3S,6S,16E,18E,20R,21S)-11-chloro-21-hydroxy-12,20-dimethoxy-2,5,9,16-tetramethyl-8,23-dioxo-4,24-dioxa-9,22-diazatetracyclo[19.3.1.110,14.03,5]hexacosa-10,12,14(26),16,18-pentaen-6-yl] (2S)-2-[methyl-(4-methyl-4-sulfanyl-pentanoyl)amino]propanoate] |  |  |  |  | spontaneous death of half of the DM4 group of animals | 9.89 | 9.35 | 10.70 | 9.70 | 5.45
